Test results taken from patent publication US9556237B2 (priority 2012, dated 2017).
Peptide text beside a SMILES is read from it.

Test system: Vero E6 cells

CSCC[C@H](N)C(=O)N[C@@H](Cc1ccccc1)C(=O)N[C@@H](CC(C)C)C(=O)NCC(=O)N[C@@H](Cc1c[nH]c2ccccc12)C(=O)N[C@@H](CO)C(=O)N[C@@H](Cc1ccccc1)C(=O)N[C@@H](CC(=O)O)C(=O)N[C@@H](Cc1ccccc1)C(=O)NCC(=O)N[C@@H](CO)C(=O)N[C@@H](CC(C)C)C(=O)N[C@@H](Cc1c[nH]c2ccccc12)C(=O)NCC(=O)N[C@@H](CC(N)=O)C(=O)N[C@@H](CCCCN)C(=O)N1CCC[C@H]1C(=O)N[C@@H](Cc1c[nH]c2ccccc12)C(=O)N[C@@H](Cc1ccccc1)C(=O)O [RVFV-6sc, MFLGWSFDFGSLWGNKPWF, reference compound] (H-MFLGWSFDFGSLWGNKPWF-OH)
impact on cell proliferation (MTT assay): little negative impact on cell proliferation
